Patent US12582122B2, “Herbicidal compositions comprising clethodim” (BASF SE, priority 2024, dated 2026)

Tested on: Digitaria insularis (DIGIN)
Assay: Post-emergence application in field trials, herbicidal activity (damage 0-100% vs untreated control)
Format: in vivo
Conditions: solo, post-emergence field trial, 21 DAT, 0.5% MSO; for % herbicidal activity A-1: 50 g ai/ha; for % herbicidal activity B: 240 g ai/ha
Procedure: In the examples below, using the method of S. R. Colby (1967) “Calculating synergistic and antagonistic responses of herbicide combinations”, Weeds 15, p. 22ff., the value E, which is expected if the activity of the individual active compounds is only additive, was calculated:
[formula] • where • X=percent activity using active herbicide A at an application rate a; • Y=percent activity using active herbicide B (e.g. clethodim) at an application rate b; • E=expected activity (in %) by A+B at application rates a+b.
If the value found experimentally is higher than the value E calculated according to Colby, a synergistic effect is present.
On field test sites, natural weed infestation or seeded weeds were treated post-emergence of the weeds.
In the field trials, the weeds were treated as indicated below.
In the following experiments, the herbicidal activity for the individual herbicidal compositions (solo and mixture applications) was assessed at the indicated days after treatment (DAT). The assessments for the damage on undesired weeds caused by the composition was carried out using a scale from 0 to 100%, compared to the untreated control plants. Here, 0 means no damage and 100 means complete destruction of the plants.
Herbicide A-1 and clethodim were, together with addition of 0.5% MSO (methylated sed oil) as adjuvant, formulated in water as distribution medium (water volume 200 l/ha) and sprayed with commercial flat fan nozzles.

| Compound | % herbicidal activity A-1 (DIGIN height 5-15 cm) [%] | % herbicidal activity A-1 (DIGIN height 60-80 cm) [%] | % herbicidal activity B (DIGIN height 5-15 cm) [%] | % herbicidal activity B (DIGIN height 60-80 cm) [%] |
| --- | --- | --- | --- | --- |
| CCOC(=O)COc1ccccc1Oc1nc(-n2c(=O)cc(C(F)(F)F)n(C)c2=O)c(F)cc1Cl [A-1, ethyl 2-[2-[[3-chloro-5-fluoro-6-[3-methyl-2,6-dioxo-4-(trifluoromethyl)pyrimidin-1-yl]-2-pyridyl]oxy]phenoxy]acetate] | 57 | 62 | – | – |
| CCSC(C)CC1CC(=O)C(/C(CC)=N/OC/C=C/Cl)=C(O)C1 (stereo not shown) [B, clethodim] | – | – | 68 | 57 |
